Measured values reported in the supplement of paper PMC10307832.

Key:
Experiment in all cases: relative viability (nuclei count vs DMSO), 5 days (fraction); higher = more cells survive
[1] = compound: C1/C(=C\C2=CC=CS2)/C(=O)/C(=C/C3=CC=CS3)/C1 + CC1(C)CCC(c2ccc(Cl)cc2)=C(CN2CCN(c3ccc(C(=O)NS(=O)(=O)c4ccc(N[C@H](CCN5CCOCC5)CSc5ccccc5)c(S(=O)(=O)C(F)(F)F)c4)cc3)CC2)C1 [Navitoclax] (partner 0.5 µM)
Outline: (§1)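 Lung cancer cell lines in 1536-well plates were dosed by pin tool the day after seeding, either with one drug alone or with a fixed anchor-drug dose plus five library-drug doses (not always all listed) in √10 steps. After 5 days, cells were fixed and their nuclei stained in one step (final 0.05% Triton X-100, 1% formaldehyde, 1 ug/ml Hoechst), then counted on 4× images. Relative viability is the nuclei count in treated wells divided by that in vehicle wells. Values are medians of duplicate plates.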

TPCA-1 + Palbociclib = compound: C1=CC(=CC=C1C2=CC(=C(S2)NC(=O)N)C(=O)N)F [TPCA-1] + CC(=O)c1c(C)c2cnc(Nc3ccc(N4CCNCC4)cn3)nc2n(C2CCCC2)c1=O [Palbociclib] (partner 0.5 µM)
Outline: as §1

TPCA-1 + Navitoclax = compound: C1=CC(=CC=C1C2=CC(=C(S2)NC(=O)N)C(=O)N)F [TPCA-1] + CC1(C)CCC(c2ccc(Cl)cc2)=C(CN2CCN(c3ccc(C(=O)NS(=O)(=O)c4ccc(N[C@H](CCN5CCOCC5)CSc5ccccc5)c(S(=O)(=O)C(F)(F)F)c4)cc3)CC2)C1 [Navitoclax] (partner 0.5 µM)
Outline: as §1

[2] = compound: C[C@]12O[C@H](C[C@]1(O)CO)n1c3ccccc3c3c4c(c5c6ccccc6n2c5c31)CNC4=O [Lestaurtinib] + Nc1nc2[nH]cc(CCc3ccc(C(=O)N[C@@H](CCC(=O)O)C(=O)O)cc3)c2c(=O)[nH]1 [Pemetrexed] (partner 0.2 µM)
Outline: as §1

Cell Line | relative viability ([1]; first compound 0.2 µM) | relative viability ([1]; first compound 0.6325 µM) | relative viability ([1]; first compound 2 µM) | relative viability ([1]; first compound 6.325 µM) | relative viability ([1]; first compound 20 µM) | relative viability (TPCA-1 + Palbociclib; first compound 0.04 µM) | relative viability (TPCA-1 + Palbociclib; first compound 0.1265 µM) | relative viability (TPCA-1 + Palbociclib; first compound 0.4 µM) | relative viability (TPCA-1 + Palbociclib; first compound 1.265 µM) | relative viability (TPCA-1 + Palbociclib; first compound 4 µM) | relative viability (TPCA-1 + Navitoclax; first compound 0.04 µM) | relative viability (TPCA-1 + Navitoclax; first compound 0.1265 µM) | relative viability (TPCA-1 + Navitoclax; first compound 0.4 µM) | relative viability (TPCA-1 + Navitoclax; first compound 1.265 µM) | relative viability (TPCA-1 + Navitoclax; first compound 4 µM) | relative viability ([2]; first compound 0.005 µM) | relative viability ([2]; first compound 0.01581 µM) | relative viability ([2]; first compound 0.05 µM) | relative viability ([2]; first compound 0.1581 µM) | relative viability ([2]; first compound 0.5 µM)
H3255 | 0.583 | 0.501 | 0.669 | 0.393 | 0.453 | 0.275 | 0.292 | 0.285 | 0.293 | 0.279 | 0.536 | 0.507 | 0.473 | 0.396 | 0.242 | 0.578 | 0.623 | 0.493 | 0.563 | 0.428
EMC-BAC-2 | 1.21 | 1.11 | 1.13 | 1.05 | 1.1 | 0.513 | 0.519 | 0.524 | 0.413 | 0.485 | 1.21 | 1.19 | 1.14 | 1.13 | 1.01 | 0.452 | 0.429 | 0.488 | 0.352 | 0.308
CAL-12T | 1.31 | 1.35 | 1.35 | 0.844 | 1.05 | 0.585 | 0.507 | 0.445 | 0.416 | 0.172 | 1.1 | 1.15 | 1.17 | 1.16 | 1.11 | 1.13 | 1.11 | 1.17 | 0.834 | 0.635
SK-MES-1 | 1.28 | 1.3 | 1.17 | 1 | 1.14 | 0.346 | 0.333 | 0.325 | 0.319 | 0.327 | 1.3 | 1.07 | 1.22 | 1.16 | 0.797 | 0.982 | 0.918 | 0.506 | 0.413 | 0.26
NCI-H1355 | 0.958 | 0.812 | 0.904 | 0.853 | 0.933 | 0.455 | 0.395 | 0.408 | 0.389 | 0.361 | 1.02 | 0.903 | 0.912 | 0.826 | 0.686 | 1.1 | 1.08 | 0.928 | 0.754 | 0.607
NCI-H838 | 1.23 | 1.17 | 1.14 | 0.86 | 1.05 | 0.225 | 0.193 | 0.222 | 0.194 | 0.199 | 1.23 | 0.985 | 1.13 | 0.995 | 0.812 | 0.263 | 0.272 | 0.231 | 0.197 | 0.126
LK-2 | 0.824 | 0.956 | 0.702 | 0.862 | 0.89 | 0.726 | – | 0.725 | 0.697 | 0.427 | 0.868 | 0.664 | 0.955 | 0.778 | 0.71 | 0.302 | 0.444 | 0.255 | 0.302 | 0.139
NCI-H1650 | 1.11 | 1.15 | 1.21 | 1.1 | 1.24 | 0.323 | 0.309 | 0.408 | 0.474 | 0.354 | 1.3 | 1.05 | 1.27 | 1.09 | 1.1 | 0.472 | 0.367 | 0.383 | 0.319 | 0.322
NCI-H322M | 1.32 | 1.2 | 1.4 | 0.587 | 0.976 | 0.469 | 0.469 | 0.488 | 0.523 | 0.403 | 1.26 | 1.07 | 1.18 | 1.13 | 1.17 | 0.599 | 0.606 | – | 0.592 | 0.445
NCI-H2228 | 0.823 | 1.3 | 0.904 | 0.73 | 1.05 | 0.865 | 0.593 | 0.801 | 0.543 | 0.308 | 0.758 | 0.68 | 1.18 | 0.656 | 0.595 | 0.381 | 0.383 | 0.299 | 0.147 | 0.148
NCI-H1395 | 1.28 | 1.65 | 1.23 | 1.04 | 1.15 | 0.644 | 0.596 | 0.639 | 0.635 | 0.512 | 1.2 | 0.932 | 1.25 | 1.05 | 0.99 | 0.788 | 1.03 | 0.559 | 0.775 | 0.379
NCI-H520 | 0.98 | 1.06 | 1.15 | 0.856 | 1 | 0.281 | 0.162 | 0.164 | 0.282 | 0.232 | 1.17 | 0.96 | 1.1 | 0.977 | 1.08 | 0.772 | 0.678 | 0.593 | 0.369 | 0.318
NCI-H441 | 0.779 | 0.769 | 0.523 | 0.527 | 0.572 | 0.186 | 0.183 | 0.188 | 0.239 | 0.162 | 0.604 | 0.405 | 0.736 | 0.578 | 0.297 | 0.272 | 0.258 | 0.238 | 0.277 | 0.285
